Measurements: patent US12491183B2, “Compositions and methods of using nintedanib for treating ocular diseases with abnormal neovascularization” (ADS Therapeutics LLC, priority 2016, dated 2025)
Entries after “also recorded” stand apart in the source; their conditions may differ.

How the values were obtained:
[1] = tested on: corneal graft rejection (C57BL/6 cornea transplanted onto BALB/c mice); assay: Mouse corneal graft rejection model; format: in vivo; conditions: nintedanib 0.2% solution TID for 8 weeks vs vehicle solution
Excerpt: In this example, cornea of C57BL/6 mice would be transplanted onto BALB/c mice cornea as described (Sonoda et al. Invest Ophthalmol Vis Sci. 1995 February; 36(2):427-34; Invest Ophthalmol Vis Sci. 2000 March; 41(3):790-8; Yamagami et al. Invest Ophthalmol Vis Sci. 2001 May; 42(6): 1293-8). The suture would be removed on day 7 after transplant. The mice would be divided into two groups. Group 1 would be treated with the nintedanib 0.2% solution and group 2 with the vehicle solution. Treatment would start immediately after transplant, TID for 8 weeks. The corneal opacity and graft rejection will be assessed weekly for 8 weeks as described.

[2] = tested on: suture-induced neovascularization in the rabbit cornea; assay: Rabbit cornea suture model of neovascularization; format: in vivo
Experimental: Topical compositions comprising 0.2% or 0.05% nintedanib in 10% 2-hydroxypropyl beta cyclodextrin in phosphate buffer solution, pH 7.4 were prepared. Thirty female Zealand White rabbits were used to perform the study. Briefly, five sutures were placed in the upper cornea of the right eye of each animal on Day 1 to induce neovascularization. The animals were treated in both eyes with either drug, vehicle or saline as described in Table 1. [table] During the study, the animals were closely observed for various ocular indications as well as general physical conditions including body weight. Ocular images were taken on days 7, 10, 12, 14, 21, 28 for analysis of hyperemia. NIH ImageJ® software was used to analyze the ocular images. Each image was opened in ImageJ®, the scale was calibrated using the ruler in the photograph and the neovascularized area on the cornea near the suture was selected by the selection tool. The area in mm^2 was calculated by measurement tool in the software, recorded in excel and the image was captured and saved. […] The results were plotted as histograms of average with standard deviation for easy comparison.

What does the source list for `COC(=O)c1ccc2c(c1)NC(=O)/C2=C(\Nc1ccc(N(C)C(=O)CN2CCN(C)CC2)cc1)c1ccccc1` [nintedanib, Methyl (3Z)-3-{[(4-{methyl[(4-methylpiperazin-1-yl)acetyl]amino}phenyl)amino] (phenyl)methylidene}-2-oxo-2,3-dihydro-1H-indole-6-carboxylate]?
survival of the graft (rejection rate) [1]: significantly increased survival of the graft; efficacy of TID dosing compared with BID dosing ([2]; rabbit cornea suture model, topical ocular, TID vs BID): higher efficacy; efficacy of 0.2% nintedanib compared with 0.05% nintedanib ([2]; rabbit cornea suture model, topical ocular, higher dose 0.2% vs 0.05%): better efficacy; effect on suture-induced corneal neovascularization (area of cornea neovascularization) ([2]; rabbit, topical ocular 0.2% or 0.05% solution BID or TID days 8 to 15, vs vehicle, day 12 and day 14 after suture): reduced cornea neovascularization; also recorded: marked inhibitory effect; also recorded: strongly inhibited corneal neovascularization
